In patent USRE49850E1, “N-(pyridin-2-yl)-4-(thiazol-5-yl)pyrimidin-2-amine derivatives as therapeutic compounds” (AUCENTRA THERAPEUTICS PTY LTD, priority 2015, dated 2024) one finds Ki, GI50 and remaining activity data, which are given here for 14 compounds.

One assay has as its target T1, CDK6D3 (Homo sapiens, UniProt Q00534).
T1 construct: purchased Eurofins Pharma Discovery or Reaction Biology Corporation (service)
Kind of assay: Kinase assay CDK6/D3 (radiometric or ADP Glo). Conditions: apparent Ki calculated from Km (ATP) and IC50; read-out: CDK inhibition Ki CDK6D3. Type of assay: biochemical. The procedure, abridged:
(§1)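 Radiometric inhibition data for CDKs came from Eurofins or Reaction Biology profiling services; CDK4/D1 was also run in-house by ADP-Glo in […] pH 7.5, 20 mM MgCl2, 0.4 mM DTT, 0.1 mg/ml BSA with RB-CTF substrate, 40 min at 37 °C after ATP start. Ten-point 1:3 dilutions (10 μM–0.5 nM); four-parameter IC50, Ki from IC50 and ATP Km.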

The test system of the next assay is MDA-MB-453. Kind of assay: Cell viability assay (MTT, solid tumour cell line) MDA-MB-453. Conditions: Homo sapiens, MDA-MB-453, 72 h; read-out: Anti-proliferative activity GI50 MDA-MB-453. It is filed as cell-based, human. The text has this:
(§2) Compounds from Example 1 were subjected to a standard MTT (3-(4,5-dimethylthiazol-2-yl)-2,5-diphenyltetrazolium bromide) and resazurin assays on solid tumour cell lines and leukemia cell lines, respectively, as previously reported (Wang S et al., J Med Chem 47:1662-1675, 2004 and Diab S. et al. CheMedChem 9:962-972, 2014).

In another assay the target is CDK7H (Homo sapiens, UniProt P50613). The assay is described as follows: Kinase assay CDK7H (radiometric profiling service). Type of assay: biochemical. Conditions: for Ki: apparent Ki calculated from Km (ATP) and IC50, read-out: CDK inhibition Ki CDK7H. The essentials:
(§3)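 In-house CDK4/D1 ADP-Glo: RB-CTF substrate, buffer […] pH 7.5/20 mM MgCl2/0.4 mM DTT/0.1 mg/ml BSA, ATP-initiated 40 min reaction at 37 °C, luminescence read-out; compounds tested from 10 μM to 0.5 nM in ten 1:3 steps. CDK7H, CDK2A and CDK1B plus alternative CDK4/D1 values measured radiometrically by external profilers; IC50 by logistic fit, apparent Ki via ATP Km.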

The next assay has as its system MV4-11. Kind of assay: Cell viability assay (resazurin, leukemia cell line) MV4-11. Type of assay: cell-based, human. Conditions: Homo sapiens, MV4-11, 72 h; read-out: Anti-proliferative activity GI50 MV4-11.
Text: as §2
On the technique in general: The colour change of resazurin is a common sign of viable cells or microbes.

The target in a further assay is T2, CDK4D1 (Homo sapiens, UniProt P11802).
T2 construct: purchased Eurofins Pharma Discovery or Reaction Biology Corporation (service)
T2 sequence (P11802 whole entry): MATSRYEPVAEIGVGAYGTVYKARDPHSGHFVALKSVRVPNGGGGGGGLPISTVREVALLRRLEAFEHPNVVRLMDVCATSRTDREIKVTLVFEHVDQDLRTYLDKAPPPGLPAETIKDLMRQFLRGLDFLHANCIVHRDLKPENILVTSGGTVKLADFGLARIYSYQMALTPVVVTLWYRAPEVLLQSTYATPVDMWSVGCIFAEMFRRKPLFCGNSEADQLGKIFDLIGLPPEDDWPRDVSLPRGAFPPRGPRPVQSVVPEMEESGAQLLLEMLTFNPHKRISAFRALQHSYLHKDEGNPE
T2 sequence (P24385 whole entry partner): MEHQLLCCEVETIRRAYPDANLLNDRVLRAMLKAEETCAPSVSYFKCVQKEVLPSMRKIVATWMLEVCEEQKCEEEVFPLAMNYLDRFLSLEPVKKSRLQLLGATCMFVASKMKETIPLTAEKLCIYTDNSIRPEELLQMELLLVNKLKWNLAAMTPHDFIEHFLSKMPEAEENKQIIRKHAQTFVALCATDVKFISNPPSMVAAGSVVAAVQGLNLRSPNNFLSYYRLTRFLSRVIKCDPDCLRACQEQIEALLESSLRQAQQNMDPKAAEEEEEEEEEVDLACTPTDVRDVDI
Kind of assay: Kinase assay CDK4/D1 (radiometric or ADP Glo). It is filed as biochemical. Conditions: apparent Ki calculated from Km (ATP) and IC50; read-out: CDK inhibition Ki CDK4D1. The essentials:
as §3

Another assay deals with CDK1B (Homo sapiens, UniProt P06493). Kind of assay: Kinase assay CDK1B (radiometric profiling service). It is filed as biochemical. Conditions: for Ki: apparent Ki calculated from Km (ATP) and IC50, read-out: CDK inhibition Ki CDK1B. The essentials: as §3
Sequence of CDK1B (P06493 whole entry): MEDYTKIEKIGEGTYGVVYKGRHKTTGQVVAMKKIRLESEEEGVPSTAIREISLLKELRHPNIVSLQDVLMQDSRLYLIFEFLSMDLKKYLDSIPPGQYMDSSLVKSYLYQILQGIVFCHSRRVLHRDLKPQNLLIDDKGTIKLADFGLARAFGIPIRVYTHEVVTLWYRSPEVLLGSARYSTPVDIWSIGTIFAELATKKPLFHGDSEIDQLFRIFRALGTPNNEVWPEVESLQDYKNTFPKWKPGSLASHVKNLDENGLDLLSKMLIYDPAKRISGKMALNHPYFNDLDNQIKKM
Sequence of CDK1B (P14635 whole entry partner): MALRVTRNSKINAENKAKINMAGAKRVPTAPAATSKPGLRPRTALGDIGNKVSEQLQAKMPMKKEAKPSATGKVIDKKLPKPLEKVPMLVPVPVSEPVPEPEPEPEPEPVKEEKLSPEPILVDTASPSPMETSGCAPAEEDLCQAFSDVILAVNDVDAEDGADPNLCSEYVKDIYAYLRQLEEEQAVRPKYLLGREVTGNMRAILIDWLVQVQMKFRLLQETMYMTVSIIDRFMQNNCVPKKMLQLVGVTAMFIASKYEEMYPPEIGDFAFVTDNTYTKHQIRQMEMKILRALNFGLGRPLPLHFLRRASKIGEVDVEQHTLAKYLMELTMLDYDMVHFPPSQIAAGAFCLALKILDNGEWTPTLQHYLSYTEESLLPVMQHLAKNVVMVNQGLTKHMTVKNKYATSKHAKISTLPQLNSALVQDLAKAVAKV
In a further assay the target is T3, CDK9T1 (Homo sapiens, UniProt P50750).
T3 construct: purchased Eurofins Pharma Discovery or Reaction Biology Corporation (service)
T3 sequence (P50750 whole entry): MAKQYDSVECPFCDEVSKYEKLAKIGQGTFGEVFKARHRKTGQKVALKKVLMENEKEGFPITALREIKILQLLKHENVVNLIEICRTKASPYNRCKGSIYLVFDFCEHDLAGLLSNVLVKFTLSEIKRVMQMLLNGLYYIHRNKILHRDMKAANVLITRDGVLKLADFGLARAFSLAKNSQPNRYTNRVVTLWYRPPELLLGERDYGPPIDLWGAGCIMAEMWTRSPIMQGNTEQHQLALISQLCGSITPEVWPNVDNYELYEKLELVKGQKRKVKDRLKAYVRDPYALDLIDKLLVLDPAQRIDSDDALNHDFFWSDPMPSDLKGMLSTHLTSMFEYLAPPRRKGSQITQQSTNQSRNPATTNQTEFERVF
T3 sequence (O60563 whole entry partner): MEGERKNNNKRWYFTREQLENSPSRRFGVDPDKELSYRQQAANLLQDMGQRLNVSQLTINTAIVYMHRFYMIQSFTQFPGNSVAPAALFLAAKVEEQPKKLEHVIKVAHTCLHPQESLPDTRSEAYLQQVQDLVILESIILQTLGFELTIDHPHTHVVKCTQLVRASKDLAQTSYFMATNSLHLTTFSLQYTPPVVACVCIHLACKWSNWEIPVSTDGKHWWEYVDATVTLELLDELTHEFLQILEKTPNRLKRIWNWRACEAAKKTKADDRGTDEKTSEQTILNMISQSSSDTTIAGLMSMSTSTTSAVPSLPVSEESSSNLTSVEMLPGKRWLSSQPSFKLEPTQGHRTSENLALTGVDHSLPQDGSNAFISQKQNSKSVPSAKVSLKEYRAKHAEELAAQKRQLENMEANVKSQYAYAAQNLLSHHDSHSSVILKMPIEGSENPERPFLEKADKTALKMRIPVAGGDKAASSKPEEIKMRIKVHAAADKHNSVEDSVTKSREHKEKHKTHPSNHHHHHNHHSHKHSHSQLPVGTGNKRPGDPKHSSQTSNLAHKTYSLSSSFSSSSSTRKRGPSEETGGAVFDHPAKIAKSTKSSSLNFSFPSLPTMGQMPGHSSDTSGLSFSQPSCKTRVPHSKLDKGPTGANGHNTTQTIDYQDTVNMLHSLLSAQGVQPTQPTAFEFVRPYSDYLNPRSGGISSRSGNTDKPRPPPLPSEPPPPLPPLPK
Kind of assay: Kinase assay CDK9/T1 (radiometric or ADP Glo). It is filed as biochemical. Conditions: apparent Ki calculated from Km (ATP) and IC50; read-out: CDK inhibition Ki CDK9T1. The procedure, abridged:
as §1

Another assay concerns the target CDK 2A (Homo sapiens, UniProt P24941). Kind of assay: Kinase assay CDK2A (radiometric profiling service). Conditions: for Ki: apparent Ki calculated from Km (ATP) and IC50, read-out: CDK inhibition Ki CDK 2A. Type of assay: biochemical. The essentials: as §3
In the next assay the test system is A2780. Kind of assay: Cell viability assay, ovarian A2780. It is filed as cell-based. Conditions: Homo sapiens, A2780; 72 h, Ovarian; read-out: Antiproliferative activity GI50 A2780.
Text: as §2

Another assay relates to D458. Kind of assay: Cell viability assay, medulloblastoma D458. It is filed as cell-based. Conditions: Homo sapiens; 72 h, Medulloblastoma; read-out: Antiproliferative activity GI50 D458.
Text: as §2

The test system of another assay is D283. The assay is described as follows: Cell viability assay, medulloblastoma D283. Type of assay: cell-based. Conditions: Homo sapiens, D283; 72 h, Medulloblastoma; read-out: Antiproliferative activity GI50 D283.
Text: as §2

Sequence of CDK7H (P50613 whole entry): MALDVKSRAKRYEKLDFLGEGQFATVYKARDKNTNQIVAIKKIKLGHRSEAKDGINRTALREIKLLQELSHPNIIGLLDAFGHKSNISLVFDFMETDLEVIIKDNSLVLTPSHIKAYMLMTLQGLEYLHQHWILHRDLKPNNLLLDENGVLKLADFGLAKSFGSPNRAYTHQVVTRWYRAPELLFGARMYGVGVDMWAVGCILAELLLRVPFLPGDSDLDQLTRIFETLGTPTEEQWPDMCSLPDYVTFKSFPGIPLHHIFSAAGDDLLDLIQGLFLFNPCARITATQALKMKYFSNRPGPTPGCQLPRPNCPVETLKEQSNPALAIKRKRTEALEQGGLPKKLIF
Sequence of CDK7H (P51946 whole entry partner): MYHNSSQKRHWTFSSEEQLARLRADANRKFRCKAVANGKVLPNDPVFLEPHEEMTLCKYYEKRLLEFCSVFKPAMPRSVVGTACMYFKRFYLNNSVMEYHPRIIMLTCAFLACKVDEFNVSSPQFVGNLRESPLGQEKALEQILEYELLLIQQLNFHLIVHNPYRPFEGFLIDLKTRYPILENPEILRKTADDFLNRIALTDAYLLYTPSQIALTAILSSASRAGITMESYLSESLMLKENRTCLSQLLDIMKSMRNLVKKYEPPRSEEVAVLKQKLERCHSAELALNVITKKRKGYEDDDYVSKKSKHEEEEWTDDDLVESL
Sequence of CDK7H (P51948 whole entry partner): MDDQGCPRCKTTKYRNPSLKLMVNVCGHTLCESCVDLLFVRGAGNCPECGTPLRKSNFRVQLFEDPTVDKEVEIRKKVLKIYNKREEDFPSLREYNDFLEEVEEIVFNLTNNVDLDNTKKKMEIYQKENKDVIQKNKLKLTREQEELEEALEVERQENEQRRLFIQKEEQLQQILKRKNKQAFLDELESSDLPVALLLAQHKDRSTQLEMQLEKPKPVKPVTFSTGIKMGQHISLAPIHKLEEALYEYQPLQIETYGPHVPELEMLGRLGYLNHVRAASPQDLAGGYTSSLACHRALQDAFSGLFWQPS
T1 sequence (Q00534 whole entry): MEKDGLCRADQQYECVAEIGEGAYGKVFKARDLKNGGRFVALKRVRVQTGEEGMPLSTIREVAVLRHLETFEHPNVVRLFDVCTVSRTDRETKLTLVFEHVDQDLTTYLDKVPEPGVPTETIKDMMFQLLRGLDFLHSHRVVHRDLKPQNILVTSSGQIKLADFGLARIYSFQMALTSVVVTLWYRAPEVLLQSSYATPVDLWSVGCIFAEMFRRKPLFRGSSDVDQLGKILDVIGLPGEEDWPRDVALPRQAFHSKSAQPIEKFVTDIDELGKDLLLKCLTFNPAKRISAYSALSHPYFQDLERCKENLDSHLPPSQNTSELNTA
T1 sequence (P30281 whole entry partner): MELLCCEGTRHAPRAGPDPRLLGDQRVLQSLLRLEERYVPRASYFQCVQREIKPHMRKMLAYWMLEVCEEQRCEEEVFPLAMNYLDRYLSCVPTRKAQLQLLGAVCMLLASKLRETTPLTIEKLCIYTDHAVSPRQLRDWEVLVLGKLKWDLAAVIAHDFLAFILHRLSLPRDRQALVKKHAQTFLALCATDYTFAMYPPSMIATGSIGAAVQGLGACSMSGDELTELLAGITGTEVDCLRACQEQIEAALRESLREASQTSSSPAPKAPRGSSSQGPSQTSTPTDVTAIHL

The GI50 is the concentration at which growth is held to half of that of the control. Turning to `CNc1nc(C)c(-c2nc(Nc3ccc(N4CCN(S(C)(=O)=O)CC4)cn3)ncc2F)s1` [Compound 52, 5-(5-fluoro-2-((5-(4-(methylsulfonyl)piperazin-1-yl)pyridin-2-yl)amino)pyrimidin-4-yl)-N,4-dimethylthiazol-2-amine], the Ki was 297 nM on CDK6D3; > 5000 nM at CDK7H; 37 nM on CDK4D1; 580 nM at CDK1B; > 5000 nM on CDK9T1; 76 nM on CDK 2A. Moreover, the GI50 in the assay with MDA-MB-453 is 660 ± 92 nM; in the assay on MV4-11, 425 ± 73 nM.

On to `CNc1nc(C)c(-c2nc(Nc3ccc(N4CCCNCC4)cn3)ncc2F)s1` [Compound 53, 5-(2-((5-(1,4-diazepan-1-yl)pyridin-2-yl)amino)-5-fluoropyrimidin-4-yl)-N,4-dimethylthiazol-2-amine], for which the Ki at CDK6D3 is 32 nM; at CDK7H, > 5000 nM; at CDK4D1, 3 nM; at CDK1B, 2370 nM; at CDK9T1, 3040 nM; on CDK 2A it was 206 nM. Besides, the GI50 with MDA-MB-453 stood at 362 ± 3 nM; with MV4-11 it was 80 ± 13 nM.

Take `Cc1nc(NC(C)C)sc1-c1ccnc(Nc2ccc(N3CCOCC3)cn2)n1` [Compound 58, N-isopropyl-4-methyl-5-(2-((5-morpholinopyridin-2-yl)amino)pyrimidin-4-yl)thiazol-2-amine]: the Ki at CDK6D3 is 82 nM; at CDK7H it was > 5000 nM; at CDK4D1 it was 41 nM; at CDK1B, > 5000 nM; on CDK9T1, > 5000 nM; on CDK 2A, 127 nM. Moreover, the GI50 was 115 ± 24 nM in the assay on MDA-MB-453 and 32 ± 3 nM in the assay on MV4-11.

Consider `Cc1nc(NC2CCCC2)sc1-c1nc(Nc2ccc(N3CCN(C)CC3)cn2)ncc1F` [Compound 64], for which the GI50 in the assay with MDA-MB-453 is 202 ± 30 nM; in the assay on A2780, 56 ± 7 nM; in the assay on MV4-11, 73 ± 28 nM; in the assay with D458 it was 457 ± 171 nM; in the assay with D283 it was 77 ± 6 nM.

For `CC(=O)N1CCN(c2ccc(Nc3ncc(F)c(-c4sc(NC5CCCC5)nc4C)n3)nc2)CC1` [Compound 69, 1-(4-(6-((4-(2-(cyclopentylamino)-4-methylthiazol-5-yl)-5-fluoropyrimidin-2-yl)amino)pyridin-3-yl)piperazin-1-yl)ethan-1-one], the Ki on CDK6D3 is 23 nM; on CDK7H it was > 5000 nM; on CDK4D1 it was 34 nM; on CDK1B, > 5000 nM; at CDK9T1 it was 4990 nM; on CDK 2A it was 228 nM. Also, the GI50 in the assay on MDA-MB-453 worked out at 8110 ± 1150 nM; in the assay on MV4-11 it was 15 ± 2 nM.

With `FC(F)(F)c1nc(NC2CCCC2)sc1-c1ccnc(Nc2ccc(N3CCOCC3)cn2)n1` [Compound 73, N-cyclopentyl-5-(2-((5-morpholinopyridin-2-yl)amino)pyrimidin-4-yl)-4-(trifluoromethyl)thiazol-2-amine], the Ki on CDK6D3 was 11 nM; on CDK7H it was > 5000 nM; on CDK4D1, 8 nM; on CDK1B, > 5000 nM; on CDK9T1 it was > 5000 nM; on CDK 2A, 154 nM. For the same compound, the GI50 was 415 ± 103 nM in the assay with MDA-MB-453 and 69 ± 13 nM in the assay with MV4-11.

As for `Cc1nc(NC2CCCC2)sc1-c1ccnc(Nc2ccc(N3CCCCC3)cn2)n1` [Compound 75, N-cyclopentyl-4-methyl-5-(2-((5-(piperidin-1-yl)pyridin-2-yl)amino)pyrimidin-4-yl)thiazol-2-amine], the Ki at CDK6D3 is 257 nM; on CDK7H, > 5000 nM; at CDK4D1, 70 nM; on CDK1B, > 5000 nM; on CDK9T1, > 5000 nM; on CDK 2A it was > 5000 nM. The GI50 in the assay with MDA-MB-453 was found to be 7040 ± 710 nM; in the assay on MV4-11, 191 ± 29 nM.

Turning to `Cc1nc(NC2CCCC2)sc1-c1nc(Nc2ccc(N3CCC(N(C)C)CC3)cn2)ncc1F` [Compound 80, N-cyclopentyl-5-(2-((5-(4-(dimethylamino)piperidin-1-yl)pyridin-2-yl)amino)-5-fluoropyrimidin-4-yl)-4-methylthiazol-2-amine], the Ki is 31 nM on CDK6D3; > 5000 nM at CDK7H; 1 nM at CDK4D1; > 5000 nM on CDK1B; 1090 nM at CDK9T1; 1150 nM on CDK 2A. The GI50 in the assay on MDA-MB-453 was determined as 356 ± 24 nM; in the assay on MV4-11, 454 ± 40 nM.

Take `Cc1nc(NC2CCCC2)sc1-c1nc(Nc2ccc(N3CCN(S(C)(=O)=O)CC3)cn2)ncc1F` [Compound 82, N-cyclopentyl-5-(5-fluoro-2-((5-(4-(methylsulfonyl)piperazin-1-yl)pyridin-2-yl)amino)pyrimidin-4-yl)-4-methylthiazol-2-amine]: the Ki was 101 nM on CDK6D3; > 5000 nM at CDK7H; 39 nM on CDK4D1; > 5000 nM on CDK1B; > 5000 nM on CDK9T1; 348 nM on CDK 2A. Further, the results for the GI50 with MDA-MB-453 and in the assay with MV4-11 were 2810 ± 89 nM and 2630 ± 582 nM, respectively.

Take `CC(=O)N1CCN(c2ccc(Nc3nccc(-c4sc(N(C)C5CCCC5)nc4C)n3)nc2)CC1` [Compound 87, 1-(4-(6-((4-(2-(cyclopentyl(methyl)amino)-4-methylthiazol-5-yl)pyrimidin-2-yl)amino)pyridin-3-yl)piperazin-1-yl)ethan-1-one]: the Ki on CDK6D3 is 31 nM; on CDK7H it was > 5000 nM; at CDK4D1, 10 nM; on CDK1B it was 3170 nM; at CDK9T1, > 5000 nM; at CDK 2A, 121 nM. In addition, the results for the GI50 in the assay on MDA-MB-453 and in the assay with MV4-11 were 6860 ± 798 nM and 328 ± 7 nM, respectively.

Consider `Cc1nc(Nc2ccccc2)sc1-c1ccnc(Nc2ccc(N3CCN(C)CC3)cn2)n1` [Compound 90, 4-methyl-5-(2-((5-(4-methylpiperazin-1-yl)pyridin-2-yl)amino)pyrimidin-4-yl)-N-phenylthiazol-2-amine], for which the Ki at CDK6D3 is 485 nM; at CDK7H, > 5000 nM; at CDK4D1, 19 nM; on CDK1B, > 5000 nM; at CDK9T1, > 5000 nM; at CDK 2A it was > 5000 nM. Moreover, the GI50 in the assay on MDA-MB-453 was 494 ± 81 nM; with MV4-11, 508 ± 42 nM.

Regarding `Cc1nc(N(C)c2ccccc2)sc1-c1ccnc(Nc2ccc(N3CCN(C)CC3)cn2)n1` [Compound 91, N,4-dimethyl-5-(2-((5-(4-methylpiperazin-1-yl)pyridin-2-yl)amino)pyrimidin-4-yl)-N-phenylthiazol-2-amine], the Ki at CDK6D3 is 100 nM; at CDK7H, > 5000 nM; on CDK4D1, 26 nM; at CDK1B it was > 5000 nM; on CDK9T1, 2000 nM; on CDK 2A, 1040 nM. In addition, the GI50 in the assay with MDA-MB-453 was determined as 150 ± 29 nM; in the assay on MV4-11, 421 ± 44 nM.

For orientation: remaining activity means the share of the control activity or signal that is left under treatment. Take `Cc1c(-c2ccnc(Nc3ccc(N4CCN(C)CC4)cn3)n2)sc(=O)n1C` [Compound 93, 3,4-dimethyl-5-(2-((5-(4-methylpiperazin-1-yl)pyridin-2-yl)amino)pyrimidin-4-yl)thiazol-2(3H)-one]: the results for the Ki on CDK6D3, at CDK4D1 and on CDK9T1 were 915 nM, 255 nM and 840 nM, respectively. The GI50 is > 10000 nM with MDA-MB-453 and 3720 ± 357 nM in the assay with MV4-11. In addition, the remaining activity at 10 µM on CDK7H (compound at 10 μM, read-out: % remaining enzymatic activity at 10 μM CDK7H) was determined as 52%; on CDK1B (compound at 10 μM, read-out: % remaining enzymatic activity at 10 μM CDK1B), 71%; on CDK 2A (compound at 10 μM, read-out: % remaining enzymatic activity at 10 μM CDK 2A) it was 77%.

For the compound `CCn1c(C)c(-c2ccnc(Nc3ccc(N4CCN(C)CC4)cn3)n2)sc1=O` [Compound 94, 3-ethyl-4-methyl-5-(2-((5-(4-methylpiperazin-1-yl)pyridin-2-yl)amino)pyrimidin-4-yl)thiazol-2(3H)-one], the Ki on CDK6D3 is 320 nM; on CDK7H, 1260 nM; at CDK4D1 it was 33 nM; on CDK1B, 3660 nM; on CDK9T1, 1580 nM; on CDK 2A, 1340 nM. The GI50 with MDA-MB-453 was > 10000 nM; with MV4-11 it was 1830 ± 194 nM.
